According to publication PMC3682108 (Journal of Infection and Chemotherapy, 2012):
Converted amounts (≈) assume the structure as drawn. Read-outs that look alike come from different tables or passages of the source.

Tests used:
[1] = system: methicillin-resistant Staphylococcus aureus (MRSA); assay: EAC-assessed microbiological response at test-of-cure, MITT-MRSA population; type: in vivo, Japanese patients; settings: daptomycin n/N 0/2, vancomycin 0/1, at TOC
[2] = system: methicillin-resistant Staphylococcus aureus (MRSA); type: in vivo, Japanese patients; settings: for Clinical success %, Wound or burn: MITT-MRSA, daptomycin 4 mg/kg qd n/N 31/38, vancomycin 1 g bid 11/13, at TOC; for Clinical response, wound or burn: daptomycin 4 mg/kg qd, wound or burn n = 38
Safety evaluation = type: in vivo, Japanese patients; settings: for Recipients with CPK levels >200 U/l: human, in vivo; for Maximum CPK level in the recipient with CPK >500 U/l: single patient per group
baseline MRSA isolates = assay: microbe, parasite or virus in culture; type: cell-based, Staphylococcus aureus
[3] = Population pharmacokinetics of daptomycin in plasma by baseline renal function; settings: 4 mg/kg once daily
[4] = 74 baseline MRSA isolates at screening, broth microdilution, CLSI M7-A7

| Compound | Microbiological success %, Other infection [1] | Clinical success %, Wound or burn [2] | Recipients with CPK levels >200 U/l (Safety evaluation) | Maximum CPK level in the recipient with CPK >500 U/l (Safety evaluation) | MIC90 (baseline MRSA isolates; [4]) | MIC range (baseline MRSA isolates; [4]) | MIC90 (baseline MRSA isolates; Staphylococcus aureus, MRSA) | further results |
| --- | --- | --- | --- | --- | --- | --- | --- | --- |
| CCCCCCCCCC(=O)N[C@@H](Cc1c[nH]c2ccccc12)C(=O)N[C@H](CC(N)=O)C(=O)N[C@@H](CC(=O)O)C(=O)N[C@@H]1C(=O)NCC(=O)N[C@@H](CCCN)C(=O)N[C@@H](CC(=O)O)C(=O)N[C@H](C)C(=O)N[C@@H](CC(=O)O)C(=O)NCC(=O)N[C@H](CO)C(=O)N[C@@H]([C@H](C)CC(=O)O)C(=O)N[C@@H](CC(=O)c2ccccc2N)C(=O)O[C@@H]1C [Daptomycin] | 0.0% | 81.6% | 9.1% | 2,545 U/l |  |  |  | Clinical response, wound or burn ([2]; baseline MRSA daptomycin MIC 0.25): 87.5%; Clinical response, wound or burn ([2]; baseline MRSA daptomycin MIC 0.5): 82.4%; Clinical response, wound or burn ([2]; baseline MRSA daptomycin MIC 1): 50.0%; Drug-related serious adverse event (kind) (Safety evaluation; one patient, just after initial dosing, resolved 4 days after discontinuation): anaphylactic shock; MIC90 (baseline MRSA isolates; baseline isolates): 0.5 µg/mL (≈ 0.309 µM); MIC range (baseline MRSA isolates; baseline isolates): 0.25 to 1 µg/mL; Mean CL/wt lower than in patients with normal renal function (CLcr >80 ml/min) ([3]; mild renal impairment (CLcr 50–80 ml/min)): approximately 15%; Mean CL/wt lower than in patients with normal renal function (CLcr >80 ml/min) ([3]; moderate renal impairment (CLcr 30 to <50 ml/min)): approximately 15%; AUC relative to patients with normal renal function ([3]; one patient with CLcr <30 ml/min): approximately 1.4 times higher; Mean CL/wt lower than in patients with normal renal function (CLcr >80 ml/min) ([3]; severe renal impairment (CLcr <30 ml/min)): ~38% |
| CN[C@H](CC(C)C)C(=O)N[C@H]1C(=O)N[C@@H](CC(N)=O)C(=O)N[C@H]2C(=O)N[C@H]3C(=O)N[C@H](C(=O)N[C@H](C(=O)O)c4cc(O)cc(O)c4-c4cc3ccc4O)[C@H](O)c3ccc(c(Cl)c3)Oc3cc2cc(c3O[C@@H]2O[C@H](CO)[C@@H](O)[C@H](O)[C@H]2O[C@H]2C[C@](C)(N)[C@H](O)[C@H](C)O2)Oc2ccc(cc2Cl)[C@H]1O [Vancomycin, vancomycin] | 0.0% | 84.6% | 9.1% | 592 U/l | 1 µg/mL (≈ 0.69 µM) | 0.5 to 2 µg/mL |  |  |
| NCC[C@H](O)C(=O)N[C@@H]1C[C@H](N)[C@@H](O[C@H]2O[C@H](CN)CC[C@H]2N)[C@H](O)[C@H]1O[C@H]1O[C@H](CO)[C@@H](O)[C@H](N)[C@H]1O [arbecacin] |  |  |  |  |  | 0.25 to 4 µg/mL | 2 µg/mL (≈ 3.62 µM) |  |
| CC(=O)NC[C@H]1CN(c2ccc(N3CCOCC3)c(F)c2)C(=O)O1 [linezolid] |  |  |  |  |  | 1 to 4 µg/mL | 2 µg/mL (≈ 5.93 µM) |  |
| Cc1onc(-c2ccccc2)c1C(=O)N[C@@H]1C(=O)N2[C@@H]1SC(C)(C)[C@@H]2C(=O)O [oxacillin] |  |  |  |  |  |  | > 128 µg/mL |  |
| teicoplanin |  |  |  |  | 4 µg/mL | 0.25 to 8 µg/mL |  |  |
